Data published in ChEMBL document CHEMBL5360653, “Marine Alkaloid Lepadins E and H Induce Ferroptosis for Cancer Chemotherapy” (J Med Chem, 2023).
Activity calls are given as the source filed them. The rule behind the calls is not given here.

How the values were obtained:
HeLa [1] = assay: Cytotoxicity against human HeLa cells incubated for 72 hrs by MTT assay; type: functional, cell-based
HeLa [2] = assay: Effect on lipid peroxidation in human HeLa cells incubated at 200 nM for 4 hrs by C11-BODIPY581/591 staining based flow cytometric analysis; type: functional, cell-based
HeLa [3] = assay: Cytotoxicity against human HeLa cells assessed as increase in cell viability at 200 nM for 4 hrs relative to control; type: functional

SMILES	IC50 (HeLa [1])	Activity (HeLa [2])	Activity (HeLa [3])
CCC[C@@H](O)CCCC[C@H]1CCC[C@H]2N[C@@H](C)[C@H](O)C[C@@H]12	> 20 µM	–	–
Clc1cccc(CNC2=Nc3ccccc3NC23CCNCC3)c1	–	Active	5%
CCCCC/C=C/C(=O)OC	> 20 µM	–	–
CCCCCCCC(=O)O[C@@H]1C[C@H]2[C@@H](CCCC[C@H](O)CCC)CCC[C@H]2N[C@H]1C	11.7 µM	–	–
CCC/C=C/C=C/C(=O)OC	> 20 µM	–	–
